{"source": "patent US8466122B2", "about": "“Trialkyl cationic lipids and methods of use thereof” (Protiva Biotherapeutics, Inc., priority 2010, dated 2013)", "test_system": "ApoB mRNA level in the liver", "assay": "Liver ApoB mRNA knockdown by 1:57 SNALP with ApoB siRNA in mice (QuantiGene assay, normalized to GAPDH mRNA)", "assay_type": "in vivo, female BALB/c mice", "conditions": "IV bolus 0.05 mg/kg siRNA, mouse liver 48 h after dosing, compared to SNALP containing the C2K benchmark cationic lipid", "description": "In particular, the objective of this study was to assess the ApoB dose response gene silencing activity in the mouse liver of 1:57 SNALP containing various novel trialkyl cationic lipids of Formula I. The ApoB siRNA sequence used in this study is provided in Table 1.\nJust prior to the first treatment, animals were weighed and dose amounts were calculated based on the weight of individual animals (equivalent to 10 mL/kg, rounded to the nearest 10 μL). The test article was administered by IV injection through the tail vein once on Day 0 (1 dose total per animal).\nAnimals were sacrificed on Day 2, 48 h after test article administration. […] A brief necropsy was performed and observations recorded. […]\nBody weight was reported for individual animals in addition to group mean and standard deviation of the group mean. Data were expressed in terms of the measured unit (grams) and the group mean difference from PBS vehicle control treatment was calculated for this expression (include SD). For body weights, individual animal data were also expressed as % of pre-treatment value and the group means were expressed as % change from pre-treatment value (include SD). […] Drug activity was measured using a QuantiGene assay for ApoB mRNA level in the liver (normalized to GAPDH mRNA level). […] Data were expressed in terms of the measured unit as well as difference from PBS vehicle control treatment. […]", "data": [{"smiles": "CCCCC/C=C\\C/C=C\\CCCCCCCCC(OC(=O)CCCCN(C)C)C(O)(CCCCCCCC/C=C\\C/C=C\\CCCCC)CCCCCCCC/C=C\\C/C=C\\CCCCC", "note": "(stereo not shown) [Compound 13-B4, (6Z,9Z,29Z,32Z)-20-hydroxy-20-((9Z,12Z)-octadeca-9,12-dienyl)octatriaconta-6,9,29,32-tetraen-19-yl 5-(dimethylamino)pentanoate]", "values": [{"measurement": "liver ApoB mRNA knockdown activity (ApoB silencing activity)", "result": "unexpectedly improved ApoB silencing activity"}]}]}
